Source: patent US20060154970A1, “Alanines compounds, method of preparing them and their use” (priority 2003, published 2006)

Assays:
3T3-L1 preadipocytes = experiment: Insulin-sensitizing activity in 3T3-L1 preadipocyte model, triglyceride accumulation in cells as indication of differentiation; format: cell-based; conditions: for activation at 0.01 µM / activation at 0.1 µM / activation at 1 µM: Mus musculus, 3T3-L1, read-out: The Percentage of Triglyceride Increased in 3T3-L1 Cells; for activation at 0.01 µM / activation at 0.1 µM / activation at 1 µM / The Percentage of Triglyceride Increased in 3T3-L1 Cells: average data in 3 pores (Rosiglitazone: n = 22, mean ± SE); for insulin-sensitizing activity (in words): summary of table 2
Protocol: Insulin-sensitizing agents can promote the differentiation of preadipocytes toward adipocytes, thus insulin-sensitizing agents could be identified according to the differentiation of pre-adipocytes. Following the methods reported in the literature [Kletzin B F. Mol. Pharm. 1991, 41, 393], the insulin-sensitizing activities of the compounds of formula (I) of the present invention were evaluated in 3T3-L1 pradipocyte model with triglyceride accumulation in cells as the indication of differentiation.
The 3T3-L1 preadipocytes were incubated in DMEM (Dulbecco's Modified Eagle's Medium) containing 10% NBS (newborn calf serum) and subcultured every 3 days. The calls were transferred to 24-pore plates, and after the pores were filled completely the cells were treated with IBMX (isobutylmethylxanthine) (0.5 mmol/L), DEX (dexamethasone) (1 μmol/L) and insulin (1.0 μmol/L) for 48 h. Different amounts of test compounds were incubated with the cells until the end of the experiment. Cells were collected and the contents of triglyceride and protein therein were determined by colorimetry. Enhancements of triglyceride in cells after drug-administrating were calculated.
The positive control group was rosiglitazone, and the solvent control group was a culturing medium containing 0.1% of DMSO. The enhancement of triglyceride in cells was determined in three different concentrations (0.01, 0.1, 1 μmol/L) of the tested compounds.

SMILES	melting point	activation at 0.01 µM (3T3-L1 preadipocytes; concentration 0.01 μmol/L)	activation at 0.1 µM (3T3-L1 preadipocytes; concentration 0.1 μmol/L)	activation at 1 µM (3T3-L1 preadipocytes; concentration 1 μmol/L)	insulin-sensitizing activity (in words) (3T3-L1 preadipocytes)	The Percentage of Triglyceride Increased in 3T3-L1 Cells (3T3-L1 preadipocytes; concentration 0.01 μmol/L)	The Percentage of Triglyceride Increased in 3T3-L1 Cells (3T3-L1 preadipocytes; concentration 0.1 μmol/L)	The Percentage of Triglyceride Increased in 3T3-L1 Cells (3T3-L1 preadipocytes; concentration 1 μmol/L)
CC(C)[C@H]1CC[C@H](C(=O)N[C@H](Cc2ccc(OCc3ccc(C(F)(F)F)cc3)cc2)C(=O)O)CC1 [Compound 8, (2R)-2-[N-(trans-4-isopropylcyclohexylcarbonyl)amino]-3-[4-(4-trifluoromethylbenzyloxy)phenyl]propionic acid]	171 to 172 °C							
CCCCOc1ccc(C[C@H](NC(=O)[C@H]2CC[C@H](C(C)C)CC2)C(=O)O)cc1 [Compound 11, (2S)-2-[N-(trans-4-isopropylcyclohexylcarbonyl)amino]-3-(4-butoxyphenyl)propionic acid]		0%	0.36%	2.23%				
CC(C)[C@H]1CC[C@H](C(=O)N[C@@H](Cc2ccc(OCCn3ccc4ccccc43)cc2)C(=O)O)CC1 [Compound 5, (2S)-2-[N-(trans-4-isopropylcyclohexylcarbonyl)amino]-3-[4-[2-(1-indolyl)ethoxy]phenyl]propionic acid]		-1.54%	-4.64%	-6.92%				
CC(C)[C@H]1CC[C@H](C(=O)N[C@@H](Cc2ccc(O)cc2)C(=O)O)CC1 [Compound 17, (2S)-2-[N-(trans-4-isopropylcyclohexylcarbonyl)amino]-3-(4-hydroxyphenyl)propionic acid]	156 to 157 °C	0.22%	10.8%	0.85%				
CC(C)[C@H]1CC[C@H](C(=O)N[C@@H](Cc2ccc(OCCN(C)c3nc4ccccc4o3)cc2)C(=O)O)CC1 [Compound 3, (2S)-2-[N-(trans-4-isopropylcyclohexylcarbonyl)amino]-3-[4-[2-[N-methyl-N-(2-benzoxazolyl)amino]ethoxy]phenyl]propionic acid]	179 to 180 °C (dec.)	-0.37%	6.7%	20%				
Cc1oc(-c2ccccc2)nc1CCOc1ccc(C[C@@H](NC(=O)[C@H]2CC[C@H](C(C)C)CC2)C(=O)O)cc1 [Compound 2, (2R)-2-[N-(trans-4-isopropylcyclohexylcarbonyl)amino]-3-[4-[2-(5-methyl-2-phenyl-4-oxazolyl)ethoxy]phenyl]propionic acid]	151 to 153 °C (dec.)	10.7%	16.5%	30.7%	stronger insulin-sensitizing activity			
CC(C)[C@H]1CC[C@H](C(=O)N[C@@H](Cc2ccc(OCc3ccccc3)cc2)C(=O)O)CC1 [Compound 9, (2S)-2-[N-(trans-4-isopropylcyclohexylcarbonyl)amino]-3-(4-benzyloxyphenyl)propionic acid]	140 to 142 °C (dec.)	6%	3.35%	-0.69%				
Cc1oc(-c2ccccc2)nc1CCOc1ccc(C[C@H](NC(=O)[C@H]2CC[C@H](C(C)C)CC2)C(=O)O)cc1 (relative stereo) [Compound 1, (2S)-2-[N-(trans-4-isopropylcyclohexylcarbonyl)amino]-3-[4-[2-(5-methyl-2-phenyl-4-oxazole)ethoxy]phenyl]propionic acid]					stronger insulin-sensitizing activity	1.56%	21.18%	47.09%
CC(C)[C@H]1CC[C@H](C(=O)N[C@@H](Cc2ccc(OCCN(C)c3ccccn3)cc2)C(=O)O)CC1 [Compound 19, (2S)-2-[N-(trans-4-isopropylcyclohexylcarbonyl)amino]-3-[4-[2-[N-methyl-N-(2-pyridyl)amino]ethoxyl]phenyl]propionic acid]	158 to 160 °C	-1.46%	-2.24%	-1.62%				
CC(C)[C@H]1CC[C@H](C(=O)N[C@H](Cc2ccc(O)cc2)C(=O)O)CC1 [Compound 18, (2R)-2-[N-(trans-4-isopropylcyclohexylcarbonyl)amino]-3-(4-hydroxyphenyl)propionic acid]	156 to 157 °C							
COc1ccc(C[C@H](NC(=O)[C@H]2CC[C@H](C(C)C)CC2)C(=O)O)cc1 [Compound 15, (2S)-2-[N-(trans-4-isopropylcyclohexylcarbonyl)amino]-3-(4-methoxyphenyl)propionic acid]	149 to 151 °C	-0.21%	5.99%	5.04%				
CCOc1ccc(C[C@@H](NC(=O)[C@H]2CC[C@H](C(C)C)CC2)C(=O)O)cc1 [Compound 14, (2R)-2-[N-(trans-4-isopropylcyclohexylcarbonyl)amino]-3-(4-ethoxyphenyl)propionic acid]	168 to 170 °C							
CCOc1ccc(C[C@H](NC(=O)[C@H]2CC[C@H](C(C)C)CC2)C(=O)O)cc1 [Compound 13, (2S)-2-[N-(trans-4-isopropylcyclohexylcarbonyl)amino]-3-(4-ethoxyphenyl)propionic acid]	168 to 170 °C	1.89%	1.83%	-4.74%				
CC(C)[C@H]1CC[C@H](C(=O)N[C@H](Cc2ccc(OCCN(C)c3nc4ccccc4o3)cc2)C(=O)O)CC1 [Compound 4, (2R)-2-[N-(trans-4-isopropylcyclohexylcarbonyl)amino]-3-[4-[2-[N-methyl-N-(2-benzoxazolyl)amino]ethoxy]phenyl]propionic acid]	179 to 180 °C	-4.77%	5.05%	11%				
CC(C)[C@H]1CC[C@H](C(=O)N[C@@H](Cc2ccc(OCc3ccc(C(F)(F)F)cc3)cc2)C(=O)O)CC1 [Compound 7, (2S)-2-[N-(trans-4-isopropylcyclohexylcarbonyl)amino]-3-[4-(4-trifluoromethylbenzyloxy)phenyl]propionic acid]	171 to 172 °C	11.8%	5.8%	4.68%				
CCCCOc1ccc(C[C@@H](NC(=O)[C@H]2CC[C@H](C(C)C)CC2)C(=O)O)cc1 [Compound 12, (2R)-2-[N-(trans-4-isopropylcyclohexylcarbonyl)amino]-3-(4-butoxyphenyl)propionic acid]	120 to 121 °C							
CC(C)[C@H]1CC[C@H](C(=O)N[C@H](Cc2ccc(OCc3ccccc3)cc2)C(=O)O)CC1 [Compound 10, (2R)-2-[N-(trans-4-isopropylcyclohexylcarbonyl)amino]-3-(4-benzyloxyphenyl)propionic acid]	140 to 142 °C (dec.)							
